In PMC12090182, “Repurposing of the RIPK1-Selective Benzo[1,4]oxazepin-4-one Scaffold for the Development of a Type III LIMK1/2 Inhibitor” (ACS Chemical Biology, 2025):

Columns and labels:
Experiment in all cases: scanMAX KINOMEscan (Eurofins)
Assay type in all cases: binding
CDK4-cyclinD3 = CDK4-cyclinD3 (Homo sapiens, UniProt P11802); settings: 1000 nM, read-out: Percent Control
Text: (§1) Supplement cb5c00097_si_002.xlsx, sheet "Table S6 (Eurofins Selectivity)" | column: Percent Control

PRKCE = PRKCE (Homo sapiens, UniProt Q02156); settings: compound concentration 100 nM; Entrez PRKCE; read-out: Percent Control
Text: as §1

GAK = GAK (Homo sapiens, UniProt O14976); settings: read-out: Percent Control
Text: as §1

[1] = target: RSK4(Kin.Dom.1-N-terminal) (Homo sapiens, UniProt Q9UK32); settings: compound concentration 100 nM; Entrez RPS6KA6; read-out: Percent Control
Text: as §1

TNNI3K = TNNI3K (Homo sapiens, UniProt Q59H18); settings: 1000 nM, read-out: Percent Control
Text: as §1

LTK = LTK (Homo sapiens, UniProt P29376); settings: 1000 nM, read-out: Percent Control
Text: as §1

NEK3 = NEK3 (Homo sapiens, UniProt P51956); settings: 1000 nM, read-out: Percent Control
Text: as §1

PRKD3 = PRKD3 (Homo sapiens, UniProt O94806); settings: 1000 nM, read-out: Percent Control
Text: as §1

TESK1 = TESK1 (Homo sapiens, UniProt Q15569); settings: 1000 nM, read-out: Percent Control
Text: as §1

LATS1 = LATS1 (Homo sapiens, UniProt O95835); settings: 1000 nM, read-out: Percent Control
Text: as §1

QSK = QSK (Homo sapiens, UniProt Q9Y2K2); settings: read-out: Percent Control
Text: as §1

RIPK5 = RIPK5 (Homo sapiens, UniProt Q6XUX3); settings: compound concentration 100 nM; Entrez DSTYK; read-out: Percent Control
Text: as §1

LYN = LYN (Homo sapiens, UniProt P07948); settings: 1000 nM, read-out: Percent Control
Text: as §1

[2] = target: JAK1(JH1domain-catalytic) (Homo sapiens, UniProt P23458); settings: 1000 nM, read-out: Percent Control
Text: as §1

BRSK2 = BRSK2 (Homo sapiens, UniProt Q8IWQ3); settings: read-out: Percent Control
Text: as §1

FLT3 = FLT3 (Homo sapiens, UniProt P36888); settings: read-out: Percent Control
Text: as §1

PAK2 = PAK2 (Homo sapiens, UniProt Q13177); settings: 1000 nM, read-out: Percent Control
Text: as §1

TTK = TTK (Homo sapiens, UniProt P33981); settings: 1000 nM, read-out: Percent Control
Text: as §1

EPHA5 = EPHA5 (Homo sapiens, UniProt P54756); settings: 1000 nM, read-out: Percent Control
Text: as §1

[3] = target: RSK1(Kin.Dom.2-C-terminal) (Homo sapiens, UniProt Q15418); settings: compound concentration 100 nM; Entrez RPS6KA1; read-out: Percent Control
Text: as §1

PFTK1 = PFTK1 (Homo sapiens, UniProt O94921); settings: 1000 nM, read-out: Percent Control
Text: as §1

MYO3A = MYO3A (Homo sapiens, UniProt Q8NEV4); settings: 1000 nM, read-out: Percent Control
Text: as §1

TAOK1 = TAOK1 (Homo sapiens, UniProt Q7L7X3); settings: compound concentration 100 nM; Entrez TAOK1; read-out: Percent Control
Text: as §1

BIKE = BIKE (Homo sapiens, UniProt Q9NSY1); settings: 1000 nM, read-out: Percent Control
Text: as §1

DAPK3 = DAPK3 (Homo sapiens, UniProt O43293); settings: 1000 nM, read-out: Percent Control
Text: as §1

FLT1 = FLT1 (Homo sapiens, UniProt P17948); settings: 1000 nM, read-out: Percent Control
Text: as §1

[4] = target: RPS6KA4(Kin.Dom.2-C-terminal) (Homo sapiens, UniProt O75676); settings: compound concentration 100 nM; Entrez RPS6KA4; read-out: Percent Control
Text: as §1

VRK2 = VRK2 (Homo sapiens, UniProt Q86Y07); settings: compound concentration 100 nM; Entrez VRK2; read-out: Percent Control
Text: as §1

[5] = target: RPS6KA5(Kin.Dom.1-N-terminal) (Homo sapiens, UniProt O75582); settings: compound concentration 100 nM; Entrez RPS6KA5; read-out: Percent Control
Text: as §1

ASK2 = ASK2 (Homo sapiens, UniProt O95382); settings: 1000 nM, read-out: Percent Control
Text: as §1

DLK = DLK (Homo sapiens, UniProt Q12852); settings: 1000 nM, read-out: Percent Control
Text: as §1

PRKX = PRKX (Homo sapiens, UniProt P51817); settings: 1000 nM, read-out: Percent Control
Text: as §1

VEGFR2 = VEGFR2 (Homo sapiens, UniProt P35968); settings: 1000 nM, read-out: Percent Control
Text: as §1

MAP3K4 = MAP3K4 (Homo sapiens, UniProt Q9Y6R4); settings: 1000 nM, read-out: Percent Control
Text: as §1

MEK6 = MEK6 (Homo sapiens, UniProt P52564); settings: compound concentration 100 nM; Entrez MAP2K6; read-out: Percent Control
Text: as §1

ROCK2 = ROCK2 (Homo sapiens, UniProt O75116); settings: 1000 nM, read-out: Percent Control
Text: as §1

Chain of QSK (Q9Y2K2 whole entry): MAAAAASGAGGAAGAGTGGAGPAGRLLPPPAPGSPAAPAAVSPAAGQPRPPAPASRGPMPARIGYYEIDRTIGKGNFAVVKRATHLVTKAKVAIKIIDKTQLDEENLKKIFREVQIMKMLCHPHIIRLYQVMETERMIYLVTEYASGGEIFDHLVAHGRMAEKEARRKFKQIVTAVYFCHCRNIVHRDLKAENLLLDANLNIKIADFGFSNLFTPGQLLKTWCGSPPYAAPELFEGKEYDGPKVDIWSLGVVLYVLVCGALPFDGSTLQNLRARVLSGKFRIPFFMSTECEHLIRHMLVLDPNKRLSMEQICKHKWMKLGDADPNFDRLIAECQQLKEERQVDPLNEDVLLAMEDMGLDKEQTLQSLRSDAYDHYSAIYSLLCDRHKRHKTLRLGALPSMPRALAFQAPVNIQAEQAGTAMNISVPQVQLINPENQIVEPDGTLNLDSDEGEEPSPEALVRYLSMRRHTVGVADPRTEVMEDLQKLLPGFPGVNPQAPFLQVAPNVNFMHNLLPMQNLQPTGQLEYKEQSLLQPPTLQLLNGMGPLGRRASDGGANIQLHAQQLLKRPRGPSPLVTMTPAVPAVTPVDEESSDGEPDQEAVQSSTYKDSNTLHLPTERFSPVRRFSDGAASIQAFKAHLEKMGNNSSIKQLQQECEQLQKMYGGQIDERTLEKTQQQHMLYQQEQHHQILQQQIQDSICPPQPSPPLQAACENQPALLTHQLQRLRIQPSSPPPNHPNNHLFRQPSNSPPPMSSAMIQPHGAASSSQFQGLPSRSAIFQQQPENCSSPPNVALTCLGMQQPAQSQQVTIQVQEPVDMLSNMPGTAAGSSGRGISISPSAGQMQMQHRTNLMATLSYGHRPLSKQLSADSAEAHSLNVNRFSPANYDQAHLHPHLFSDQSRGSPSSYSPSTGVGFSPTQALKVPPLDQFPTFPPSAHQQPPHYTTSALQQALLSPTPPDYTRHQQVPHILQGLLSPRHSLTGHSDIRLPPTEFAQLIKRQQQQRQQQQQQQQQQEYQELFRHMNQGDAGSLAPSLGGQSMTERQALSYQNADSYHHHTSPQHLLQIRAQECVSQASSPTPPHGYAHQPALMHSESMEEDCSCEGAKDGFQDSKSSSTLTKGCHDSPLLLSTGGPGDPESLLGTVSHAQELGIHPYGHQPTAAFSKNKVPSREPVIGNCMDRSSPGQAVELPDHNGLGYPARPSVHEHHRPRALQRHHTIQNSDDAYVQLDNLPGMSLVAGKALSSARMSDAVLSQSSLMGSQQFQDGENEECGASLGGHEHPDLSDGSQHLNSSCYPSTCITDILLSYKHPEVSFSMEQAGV
Chain of FLT3 (P36888 27-993): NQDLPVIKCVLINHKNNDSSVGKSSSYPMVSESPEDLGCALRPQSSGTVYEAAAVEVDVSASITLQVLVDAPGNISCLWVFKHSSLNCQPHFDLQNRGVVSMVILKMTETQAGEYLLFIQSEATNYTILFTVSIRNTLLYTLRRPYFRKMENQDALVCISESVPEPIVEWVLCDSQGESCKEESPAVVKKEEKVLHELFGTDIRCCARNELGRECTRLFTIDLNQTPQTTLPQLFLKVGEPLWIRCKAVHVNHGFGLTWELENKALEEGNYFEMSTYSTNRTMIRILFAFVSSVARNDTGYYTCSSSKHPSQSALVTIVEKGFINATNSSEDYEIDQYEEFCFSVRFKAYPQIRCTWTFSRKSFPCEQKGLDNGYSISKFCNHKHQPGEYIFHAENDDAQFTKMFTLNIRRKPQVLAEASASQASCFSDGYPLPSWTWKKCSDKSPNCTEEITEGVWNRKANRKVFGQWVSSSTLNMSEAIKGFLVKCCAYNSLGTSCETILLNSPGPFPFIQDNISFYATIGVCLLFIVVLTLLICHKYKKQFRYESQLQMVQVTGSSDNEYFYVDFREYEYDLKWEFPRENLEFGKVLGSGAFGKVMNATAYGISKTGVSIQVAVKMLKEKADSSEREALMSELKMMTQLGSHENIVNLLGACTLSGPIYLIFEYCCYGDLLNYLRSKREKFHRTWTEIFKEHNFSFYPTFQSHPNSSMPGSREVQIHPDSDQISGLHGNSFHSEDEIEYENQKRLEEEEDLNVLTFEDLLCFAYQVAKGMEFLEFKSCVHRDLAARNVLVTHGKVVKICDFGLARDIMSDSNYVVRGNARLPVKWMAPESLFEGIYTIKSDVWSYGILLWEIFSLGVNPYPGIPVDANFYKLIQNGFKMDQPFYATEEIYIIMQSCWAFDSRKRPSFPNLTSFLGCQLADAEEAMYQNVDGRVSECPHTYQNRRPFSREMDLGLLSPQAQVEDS
Chain of BRSK2 (Q8IWQ3 whole entry): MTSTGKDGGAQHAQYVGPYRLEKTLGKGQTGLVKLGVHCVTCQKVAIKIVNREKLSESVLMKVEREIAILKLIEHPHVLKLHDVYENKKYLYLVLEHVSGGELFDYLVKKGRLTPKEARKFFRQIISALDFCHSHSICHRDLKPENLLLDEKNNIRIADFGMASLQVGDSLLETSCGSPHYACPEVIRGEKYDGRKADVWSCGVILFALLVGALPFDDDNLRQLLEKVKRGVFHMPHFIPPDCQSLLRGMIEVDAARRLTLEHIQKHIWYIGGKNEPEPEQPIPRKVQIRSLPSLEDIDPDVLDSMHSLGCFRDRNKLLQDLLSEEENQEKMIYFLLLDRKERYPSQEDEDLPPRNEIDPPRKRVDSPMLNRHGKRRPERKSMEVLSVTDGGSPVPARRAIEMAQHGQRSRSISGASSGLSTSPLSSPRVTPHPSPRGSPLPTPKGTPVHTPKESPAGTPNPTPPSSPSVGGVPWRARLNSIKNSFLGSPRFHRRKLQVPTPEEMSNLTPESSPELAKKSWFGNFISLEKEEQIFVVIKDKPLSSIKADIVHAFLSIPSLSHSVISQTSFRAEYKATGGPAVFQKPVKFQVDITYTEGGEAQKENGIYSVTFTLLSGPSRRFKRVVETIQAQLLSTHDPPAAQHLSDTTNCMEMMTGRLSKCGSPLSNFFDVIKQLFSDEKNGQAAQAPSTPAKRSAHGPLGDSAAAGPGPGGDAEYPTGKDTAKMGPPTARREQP
Chain of GAK (O14976 whole entry): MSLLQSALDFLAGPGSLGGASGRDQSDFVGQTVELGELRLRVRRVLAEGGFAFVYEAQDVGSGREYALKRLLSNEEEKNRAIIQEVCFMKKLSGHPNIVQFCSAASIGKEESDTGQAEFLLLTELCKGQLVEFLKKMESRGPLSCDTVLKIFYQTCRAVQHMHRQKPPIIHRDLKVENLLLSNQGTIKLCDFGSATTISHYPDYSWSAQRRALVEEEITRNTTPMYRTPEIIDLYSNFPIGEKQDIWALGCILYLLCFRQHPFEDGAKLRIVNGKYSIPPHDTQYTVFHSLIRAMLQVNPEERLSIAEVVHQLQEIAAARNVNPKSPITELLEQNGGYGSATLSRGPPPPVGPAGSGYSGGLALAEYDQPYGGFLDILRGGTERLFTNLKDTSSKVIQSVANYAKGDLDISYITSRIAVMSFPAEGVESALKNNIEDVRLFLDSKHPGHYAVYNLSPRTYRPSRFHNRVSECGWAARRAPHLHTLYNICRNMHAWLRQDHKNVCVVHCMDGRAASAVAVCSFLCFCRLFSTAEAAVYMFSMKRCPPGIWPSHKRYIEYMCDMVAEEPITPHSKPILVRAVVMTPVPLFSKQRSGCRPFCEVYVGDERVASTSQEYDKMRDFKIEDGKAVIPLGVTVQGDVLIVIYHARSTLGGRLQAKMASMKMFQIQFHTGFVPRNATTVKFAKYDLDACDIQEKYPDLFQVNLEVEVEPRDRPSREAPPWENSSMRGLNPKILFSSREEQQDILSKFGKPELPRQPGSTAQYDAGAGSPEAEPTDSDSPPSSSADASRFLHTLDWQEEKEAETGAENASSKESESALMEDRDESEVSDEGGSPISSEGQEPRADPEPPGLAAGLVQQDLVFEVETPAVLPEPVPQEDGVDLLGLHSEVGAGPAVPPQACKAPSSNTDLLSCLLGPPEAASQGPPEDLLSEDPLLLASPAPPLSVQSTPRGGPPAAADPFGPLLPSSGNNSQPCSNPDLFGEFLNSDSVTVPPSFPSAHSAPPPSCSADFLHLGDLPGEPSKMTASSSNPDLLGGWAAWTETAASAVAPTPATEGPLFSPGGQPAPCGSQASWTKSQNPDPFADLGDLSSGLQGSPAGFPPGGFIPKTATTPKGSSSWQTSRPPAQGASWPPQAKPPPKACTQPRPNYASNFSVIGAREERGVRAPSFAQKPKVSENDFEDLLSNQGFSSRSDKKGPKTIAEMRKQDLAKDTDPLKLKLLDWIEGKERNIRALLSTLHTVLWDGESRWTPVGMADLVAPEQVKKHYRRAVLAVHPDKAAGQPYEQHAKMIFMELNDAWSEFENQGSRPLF
Chain of NEK3 (P51956 whole entry): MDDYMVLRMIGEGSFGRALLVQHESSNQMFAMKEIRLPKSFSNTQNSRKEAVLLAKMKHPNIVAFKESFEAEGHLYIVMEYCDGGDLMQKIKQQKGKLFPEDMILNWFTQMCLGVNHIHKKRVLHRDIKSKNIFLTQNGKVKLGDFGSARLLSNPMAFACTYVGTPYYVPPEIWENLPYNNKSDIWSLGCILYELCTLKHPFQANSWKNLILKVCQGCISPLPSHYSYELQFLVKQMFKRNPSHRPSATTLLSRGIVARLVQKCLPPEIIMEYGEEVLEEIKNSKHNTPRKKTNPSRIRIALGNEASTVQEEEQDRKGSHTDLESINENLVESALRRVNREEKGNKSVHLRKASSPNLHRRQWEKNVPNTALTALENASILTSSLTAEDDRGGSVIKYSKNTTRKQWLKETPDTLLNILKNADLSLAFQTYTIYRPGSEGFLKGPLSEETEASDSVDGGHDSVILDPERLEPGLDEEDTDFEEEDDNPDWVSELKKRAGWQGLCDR
Chain of RSK1(Kin.Dom.2-C-terminal) (Q15418 418-675): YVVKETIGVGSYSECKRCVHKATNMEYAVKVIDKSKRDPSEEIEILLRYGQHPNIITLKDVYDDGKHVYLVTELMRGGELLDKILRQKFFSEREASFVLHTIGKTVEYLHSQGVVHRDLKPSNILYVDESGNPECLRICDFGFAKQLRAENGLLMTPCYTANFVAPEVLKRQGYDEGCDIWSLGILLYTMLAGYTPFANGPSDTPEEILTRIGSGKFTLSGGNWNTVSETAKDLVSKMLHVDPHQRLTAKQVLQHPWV

`CN1C(=O)[C@@H](N2CCc3c(nn(Cc4ccccc4)c3C(N)=O)C2=O)COc2cc(Cl)ccc21` [Compound 10, (S)-2-benzyl-6-(8-chloro-5-methyl-4-oxo-2,3,4,5-tetrahydrobenzo[b][1,4]oxazepin-3-yl)-7-oxo-4,5,6,7-tetrahydro-2H-pyrazolo[3,4-c]pyridine-3-carboxamide] gave a remaining binding at 1 µM (CDK4-cyclinD3) of 95%, a remaining binding at 0.1 µM (PRKCE) of 91% and a remaining binding at 1 µM (GAK; 1000 nM) of 100%. It also gave a remaining binding at 0.1 µM (GAK; compound concentration 100 nM, Entrez GAK) of 87%, a remaining binding at 0.1 µM [1] of 100% and a remaining binding at 1 µM (TNNI3K) of 80%. For the same molecule, the remaining binding at 1 µM (LTK) was 86%, the remaining binding at 1 µM (NEK3) was 86% and the remaining binding at 1 µM (PRKD3) was 92%. It also gave a remaining binding at 1 µM (TESK1) of 79%, a remaining binding at 1 µM (LATS1) of 82% and a remaining binding at 1 µM (QSK; 1000 nM) of 98%. It also gave a remaining binding at 0.1 µM (QSK; compound concentration 100 nM, Entrez KIAA0999) of 90%, a remaining binding at 0.1 µM (RIPK5) of 91% and a remaining binding at 1 µM (LYN) of 77%. For the same molecule, the remaining binding at 1 µM [2] was 89%, the remaining binding at 1 µM (BRSK2; 1000 nM) was 100% and the remaining binding at 0.1 µM (BRSK2; compound concentration 100 nM, Entrez BRSK2) was 85%. The remaining binding at 1 µM (FLT3; 1000 nM) was 100%, the remaining binding at 0.1 µM (FLT3; compound concentration 100 nM, Entrez FLT3) was 96% and the remaining binding at 1 µM (PAK2) was 67%. It also gave a remaining binding at 1 µM (TTK) of 93%, a remaining binding at 1 µM (EPHA5) of 97% and a remaining binding at 0.1 µM [3] of 97%. It also gave a remaining binding at 1 µM (PFTK1) of 79%, a remaining binding at 1 µM (MYO3A) of 94% and a remaining binding at 0.1 µM (TAOK1) of 100%. It also gave a remaining binding at 1 µM (BIKE) of 82%, a remaining binding at 1 µM (DAPK3) of 87% and a remaining binding at 1 µM (FLT1) of 86%. It also gave a remaining binding at 0.1 µM [4] of 100%, a remaining binding at 0.1 µM (VRK2) of 77% and a remaining binding at 0.1 µM [5] of 92%. It also gave a remaining binding at 1 µM (ASK2) of 90%, a remaining binding at 1 µM (DLK) of 81% and a remaining binding at 1 µM (PRKX) of 78%. For the same molecule, the remaining binding at 1 µM (VEGFR2) was 92%, the remaining binding at 1 µM (MAP3K4) was 92% and the remaining binding at 0.1 µM (MEK6) was 88%. The remaining binding at 1 µM (ROCK2) was 74%.
